Earlier results, collected in patent US20220351806A1, “Biomarker Panels for Guiding Dysregulated Host Response Therapy” (Endpoint Health Inc., priority 2019, published 2022).

How the values were obtained:
[1] = test system: acid-induced lung injury; details: rats, cited from earlier work
[2] = test system: oncologic and lymphopenic patients; details: over 390 oncologic and lymphopenic patients; cited from earlier work
[3] = test system: shock events induced by endotoxin; details: rats, preventive administration, injected endotoxin; cited from earlier work
[4] = test system: septic animals; details: exogenous TFPI expressed in mammalian cells and/or Escherichia coli; cited from earlier work

For `CCOC(=O)[C@H](Cc1ccccc1)NC(=O)c1cc(Cl)c(OCCN2CCN(C)CC2)c(Cl)c1O.Cl.Cl` [JTE 607], the “production of inflammatory cytokines (tumor necrosis factor-alpha, interleukin-6, cytokine-induced neutrophil chemoattractant)” value ([1]; acid-induced lung injury) is listed as “inhibit the production” and the acid-induced lung injury [1] is listed as “attenuate acid-”.
In the case of CYT-107, the immunity [2] is listed as “counts, and improved” and the safety [2] is listed as “safe, invariably”.
In the case of `CC1C(=O)OC2C(O)C34C5CC(C(C)(C)C)C36C(OC(=O)C6O)OC4(C(=O)O5)C12O` (stereo not drawn) [BN 52021], the “release of thromboxane and prostaglandin factor 1-α (PGF1-α)” value [3] is given as “reduced”.
In the case of tifacogin, the “outcome in septic animals” value [4] is listed as “coli improved”.
